Test system: NCI-H358 cell line
Test: TGFβ treatment of NCI-H358, western blot phenotype
Assay type: cell-based
Procedure: FIG. 4A depicts a western blot analysis of the non-small cell lung cancer cell line NCI-H358 for protein levels of E-cadherin, vimentin, PC ([…]), GLS (phosphate activated glutaminase), and actin (control).
In order to better understand the contribution of mesenchymal versus epithelial phenotype to GLS dependence, the NCI-H358 cell line was treated with TGFβ and the phenotype assayed.

TGFβ: TGFβ used to induce EMT in the NCI-H358 cell line
phenotype after TGFβ treatment (E-cadherin/vimentin expression): shift to a mesenchymal phenotype | increase in GAC protein levels in the mesenchymal variant (TGFβ induced EMT): 2 fold
